The target of one experiment is Recombinant kinase JAK2 (Homo sapiens (Human), UniProt O60674). Briefly: In vitro JAK kinase inhibition assay (ADP-Glo), JAK2. In kind it is biochemical. As to conditions: 30 μM ATP, peptide IGF-1Rtide, averaged. On the procedure:
(§1) In Vitro JAK Kinase Inhibition Assay
(§2) The effects of the compounds of the invention were analysed in vitro using kinase JAK inhibition assay described below.
Tested compounds were dissolved in 100% DMSO, and obtained stock solutions were serially diluted in the reaction buffer (50 mM Tris pH 7.5, 10 mM MgCl2, 0.25 mM EGTA, 0.1 mM Na3VO4, 0.01% Triton X-100, 2.5 mM DTT). Recombinant kinases JAK1 (ProQinase), JAK2, or JAK3 (Carna Biosciences) were diluted in the dilution buffer (50 mM Tris-HCl pH 7.5, 150 mM NaCl, 10% glycerol, 0.05% Triton X-100, 1 mM DTT) to the final concentration 3 ng/μL (JAK1), 0.1 ng/μL (JAK2), or 0.2 ng/μL (JAK3). 5 μL of obtained solution of the compounds and 5 μL of the solution of respective kinases were added to the well of a 96-well plate. To initiate interaction between tested compounds and an enzyme, the plate was incubated for 10 minutes at 25° C. in a Plate-Thermo-Shaker with orbital stirring at 400 rpm. Wells of a negative control contained all reagents as mentioned above with the exception of tested compounds and kinase, and wells of a positive controls contained all reagents as mentioned above with the exception of tested compounds. […] Then the plate was incubated for 1 hour at 25° C. in a Plate-Thermo-Shaker, with orbital stirring at 400 rpm. Detection of ADP formed in the enzymatic reaction was then performed using ADP-Glo Kinase Assay kit (Promega). For this purpose, to the well of the 96-well plate 25 μL of ADP-Glo Reagent were added, and the plate was incubated for 40 minutes at 25° C. in a Plate-Thermo-Shaker with orbital stirring at 400 rpm. Then to the well of the 96-well plate 50 μL of Kinase Detection Reagent were added and the plate was incubated for 30 minutes at 25° C. in a Plate-Thermo-Shaker with orbital stirring at 400 rpm. After incubation, luminescence intensity was measured using Victor×Light luminometer (Perkin Elmer, Inc.).
(§3) On the basis of luminescence measurement in wells containing tested compounds at various concentrations and in control wells, IC50 values were determined. These values were determined with Graph Pad software v. 5.03, by fitting points of the curve using non-linear regression method. Each compound was tested in at least 6 repetitions (6 wells) on two 96-well plates, using at least 3 wells of each control.

A further experiment addresses Recombinant kinase JAK3 (Homo sapiens (Human), UniProt P52333). Briefly: In vitro JAK kinase inhibition assay (ADP-Glo), JAK3. It is filed as biochemical. Particulars: 30 μM ATP, peptide IGF-1Rtide, averaged. On the procedure: as §1, §2
Tested compounds were dissolved in 100% DMSO, and obtained stock solutions were serially diluted in the reaction buffer (50 mM Tris pH 7.5, 10 mM MgCl2, 0.25 mM EGTA, 0.1 mM Na3VO4, 0.01% Triton X-100, 2.5 mM DTT). Recombinant kinases JAK1 (ProQinase), JAK2, or JAK3 (Carna Biosciences) were diluted in the dilution buffer (50 mM Tris-HCl pH 7.5, 150 mM NaCl, 10% glycerol, 0.05% Triton X-100, 1 mM DTT) to the final concentration 3 ng/μL (JAK1), 0.1 ng/μL (JAK2), or 0.2 ng/μL (JAK3). 5 μL of obtained solution of the compounds and 5 μL of the solution of respective kinases were added to the well of a 96-well plate. To initiate interaction between tested compounds and an enzyme, the plate was incubated for 10 minutes at 25° C. in a Plate-Thermo-Shaker with orbital stirring at 400 rpm. Wells of a negative control contained all reagents as mentioned above with the exception of tested compounds and kinase, and wells of a positive controls contained all reagents as mentioned above with the exception of tested compounds. Enzymatic reaction was initiated by the addition of 15 μL of the following solution: 5× concentrated reaction buffer (50 mM Tris pH 7.5, 10 mM MgCl2, 0.25 mM EGTA, 0.1 mM Na3VO4, 0.01% Triton X-100, 2.5 mM DTT), water, 30 μM ATP and for particular kinases: JAK1—60 μM peptide IRS-1 (Enzo), JAK2 or JAK3—10 μM peptide IGF-1Rtide (Lipopharm). Then the plate was incubated for 1 hour at 25° C. in a Plate-Thermo-Shaker, with orbital stirring at 400 rpm. Detection of ADP formed in the enzymatic reaction was then performed using ADP-Glo Kinase Assay kit (Promega). For this purpose, to the well of the 96-well plate 25 μL of ADP-Glo Reagent were added, and the plate was incubated for 40 minutes at 25° C. in a Plate-Thermo-Shaker with orbital stirring at 400 rpm. Then to the well of the 96-well plate 50 μL of Kinase Detection Reagent were added and the plate was incubated for 30 minutes at 25° C. in a Plate-Thermo-Shaker with orbital stirring at 400 rpm. After incubation, luminescence intensity was measured using Victor×Light luminometer (Perkin Elmer, Inc.).
as §3
Averaged results of kinases JAK inhibition activity for selected compounds of the present invention are presented below in Table 1.

In experiment [1] the test system is INFγ secreted by lymphocytes T. The experiment can be described thus: Inhibition of INFγ production by lymphocytes T in vitro. In kind it is cell-based. Particulars: Lymphocyte, 48 hours, human CD4+ lymphocytes T; for inhibition at 0.01 µM: 10 nM; for inhibition at 0.1 µM: 100 nM; for inhibition at 1 µM: 1000 nM. On the procedure: Assay for Inhibition of TNFα and INFγ Production by Lymphocytes T In Vitro
The activity of the compounds of the invention was tested using in vitro assay described below.
Tested compounds were dissolved in 100% DMSO, and obtained stock solutions were serially diluted with OptiMEM medium (Reduced Serum Medium-Thermo Fisher Scientific). Lymhocytes were isolated from leukocyte top coat layer obtained from human peripheral blood. Isolation of peripheral blood mononuclear cells was performed using Ficoll-Paque+Leucosept gradient method, with lymphocytes isolation using CD4+ T Cell Isolation Kit, and activation using T Cell Activation/Expansion Kit (Miltenyi Biotec). Isolated cells in culture medium (90% RPMI 1640+10% FBS) were sived on 12-well plates at 450 μL/well, 300 thousands/well, and 50 μL of prepared 10× stock solutions of tested compounds were added. After 48 hours supernatant was collected for determination of the level of secreted cytokines. Before determination, cells were centrifuged at 1000 g, 10 min. Determination was performed with flow cytometer FACS Calibur using LEGENDplex Human Th cytokine kit. Results are presented in Table 3 as a percentage of inhibition of TNFα i INFγ cytokines secreted by lymphocytes T with reference to control cells.

pIC50: −log10 of the molar value.

Chain of Recombinant kinase JAK3 (P52333 whole entry): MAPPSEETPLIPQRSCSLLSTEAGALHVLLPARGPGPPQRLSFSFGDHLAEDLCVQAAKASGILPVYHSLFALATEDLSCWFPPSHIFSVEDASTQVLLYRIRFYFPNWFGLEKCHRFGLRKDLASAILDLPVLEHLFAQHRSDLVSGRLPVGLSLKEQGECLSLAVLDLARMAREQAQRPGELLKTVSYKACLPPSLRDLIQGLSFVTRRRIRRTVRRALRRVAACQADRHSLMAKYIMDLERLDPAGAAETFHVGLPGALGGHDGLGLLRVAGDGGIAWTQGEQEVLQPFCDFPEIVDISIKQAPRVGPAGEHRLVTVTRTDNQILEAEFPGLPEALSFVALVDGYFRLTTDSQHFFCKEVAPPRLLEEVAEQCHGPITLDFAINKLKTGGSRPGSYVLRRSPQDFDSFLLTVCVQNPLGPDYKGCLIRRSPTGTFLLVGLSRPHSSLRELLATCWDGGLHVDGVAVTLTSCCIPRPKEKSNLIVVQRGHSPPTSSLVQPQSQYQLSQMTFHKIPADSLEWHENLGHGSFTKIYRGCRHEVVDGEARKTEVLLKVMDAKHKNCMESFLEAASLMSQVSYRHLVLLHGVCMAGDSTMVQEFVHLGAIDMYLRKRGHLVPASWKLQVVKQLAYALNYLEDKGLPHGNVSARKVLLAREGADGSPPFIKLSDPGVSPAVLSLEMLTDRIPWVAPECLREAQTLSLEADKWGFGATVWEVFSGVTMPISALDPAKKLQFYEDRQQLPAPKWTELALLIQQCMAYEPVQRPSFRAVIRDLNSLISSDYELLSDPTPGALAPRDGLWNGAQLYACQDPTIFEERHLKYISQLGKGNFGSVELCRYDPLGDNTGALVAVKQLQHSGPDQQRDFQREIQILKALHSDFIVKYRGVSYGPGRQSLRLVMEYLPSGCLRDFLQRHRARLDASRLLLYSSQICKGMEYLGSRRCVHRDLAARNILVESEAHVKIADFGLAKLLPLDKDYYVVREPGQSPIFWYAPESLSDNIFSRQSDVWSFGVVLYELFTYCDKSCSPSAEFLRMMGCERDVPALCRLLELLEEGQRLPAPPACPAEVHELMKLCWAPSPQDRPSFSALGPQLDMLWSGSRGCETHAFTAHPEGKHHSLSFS
Chain of Recombinant kinase JAK2 (O60674 whole entry): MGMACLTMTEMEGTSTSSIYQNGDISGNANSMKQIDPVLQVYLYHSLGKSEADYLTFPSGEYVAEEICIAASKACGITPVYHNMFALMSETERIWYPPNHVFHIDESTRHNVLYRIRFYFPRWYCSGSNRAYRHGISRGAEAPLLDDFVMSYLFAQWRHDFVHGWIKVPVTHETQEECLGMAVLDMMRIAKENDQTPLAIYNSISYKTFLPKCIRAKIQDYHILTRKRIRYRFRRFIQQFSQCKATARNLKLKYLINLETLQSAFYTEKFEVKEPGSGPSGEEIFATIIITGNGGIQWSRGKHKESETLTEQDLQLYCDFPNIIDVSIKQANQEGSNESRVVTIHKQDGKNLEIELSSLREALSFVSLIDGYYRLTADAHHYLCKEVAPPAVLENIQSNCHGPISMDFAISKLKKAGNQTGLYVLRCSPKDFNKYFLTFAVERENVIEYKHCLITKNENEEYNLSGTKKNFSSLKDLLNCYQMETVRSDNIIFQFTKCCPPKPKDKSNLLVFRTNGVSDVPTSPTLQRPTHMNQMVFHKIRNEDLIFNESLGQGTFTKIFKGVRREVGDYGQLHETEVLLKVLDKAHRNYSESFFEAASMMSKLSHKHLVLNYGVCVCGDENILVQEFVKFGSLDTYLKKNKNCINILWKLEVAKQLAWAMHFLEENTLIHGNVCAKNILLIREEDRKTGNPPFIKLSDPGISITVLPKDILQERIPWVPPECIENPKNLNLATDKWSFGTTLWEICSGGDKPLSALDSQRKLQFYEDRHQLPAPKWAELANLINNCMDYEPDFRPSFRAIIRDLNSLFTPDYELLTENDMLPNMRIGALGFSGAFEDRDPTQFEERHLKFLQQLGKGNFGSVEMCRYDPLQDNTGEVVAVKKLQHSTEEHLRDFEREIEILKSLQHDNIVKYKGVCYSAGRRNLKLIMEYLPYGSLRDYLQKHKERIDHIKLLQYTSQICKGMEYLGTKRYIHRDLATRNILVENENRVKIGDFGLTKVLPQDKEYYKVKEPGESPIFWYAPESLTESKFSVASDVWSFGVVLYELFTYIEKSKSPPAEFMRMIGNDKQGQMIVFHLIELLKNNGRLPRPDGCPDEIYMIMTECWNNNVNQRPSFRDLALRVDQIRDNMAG

For `COc1cccc(-c2cc3ncc(C(N)=O)c(N[C@@H]4CCN(c5ccc(C#N)nn5)CC4(C)C)n3n2)n1` [Example 11, (R)-7-((1-(6-Cyanopyridazin-3-yl)-3,3-dimethylpiperidin-4-yl)amino)-2-(6-methoxy-pyridin-2-yl)pyrazolo[1,5-a]pyrimidine-6-carboxamide], the pIC50 on Recombinant kinase JAK2 was 8.93. The pIC50 on Recombinant kinase JAK3 is 10.52. In experiment [1], this compound came in with an inhibition at 0.01 µM of 88.8%, an inhibition at 0.1 µM of 93.5% and an inhibition at 1 µM of 81.4%.
The corresponding values for `CC1(C)CN(c2ccc(C#N)nn2)CC[C@H]1Nc1c(C(N)=O)cnc2cc(-c3ccc(N4CCOCC4)nc3)nn12` [Example 7, (R)-7-((1-(6-Cyanopyridazin-3-yl)-3,3-dimethylpiperidin-4-yl)amino)-2-(6-morpholinopyridin-3-yl)pyrazolo[1,5-a]pyrimidine-6-carboxamide] are 8.47, 9.72, 73.6%, 74.6% and 98.1%.
The corresponding values for `COc1ccc(-c2cc3ncc(C(N)=O)c(N[C@@H]4CCN(c5ccc(C#N)nn5)CC4(C)C)n3n2)cn1` [Example 4, (R)-7-((1-(6-Cyanopyridazin-3-yl)-3,3-dimethylpiperidin-4-yl)amino)-2-(6-methoxy-pyridin-3-yl)pyrazolo[1,5-a]pyrimidine-6-carboxamide] are 7.56, 8.57, 80.9%, 86.5% and 95.6%.
On the same counts, the results for `Cc1cc(-c2cc3ncc(C(N)=O)c(N[C@@H]4CCN(c5ccc(C#N)nn5)CC4(C)C)n3n2)ccn1` [Example 12, (R)-7-((1-(6-Cyanopyridazin-3-yl)-3,3-dimethylpiperidin-4-yl)amino)-2-(2-methyl-pyridin-4-yl)pyrazolo[1,5-a]pyrimidine-6-carboxamide] are 8.30, 9.54, 86.2%, 88% and 93%.

(Values after patent US11072619B2, “Pyrazole[1,5-a] pyrimidine derivatives as kinase JAK inhibitors” (CELON PHARMA S.A., priority 2017, dated 2021).)
